pIC50: −log10 of the molar value. Calls of active or inactive are those of the source. The calls are words filed in the database; no cut-off is given here.
Legend:
A549 [1] = assay: Induction of apoptosis in human A549 cells assessed as nuclear condensation at 10 to 20 uM measured after 12 hrs by DAPI staining based fluorescence microscopic analysis; assay type: functional, cell-based
A549 [2] = assay: Induction of apoptosis in human A549 cells at 10 to 15 uM after 12 hrs by flow cytometric analysis; assay type: functional, cell-based
A549 [3] = assay: Induction of apoptosis in human A549 cells assessed as decrease in Bcl2 protein expression level at 5 to 20 uM incubated for 12 hrs by Western blot analysis; assay type: functional, cell-based
A549 [4] = assay: Induction of apoptosis in human A549 cells assessed as upregulation of Bax protein expression at 5 to 20 uM incubated for 12 hrs by Western blot analysis; assay type: functional, cell-based
MGC-803 [5] = assay: Antiproliferative activity against human MGC803 cells incubated for 48 hrs and measured after 4 hrs by MTT assay; assay type: functional, cell-based
PC-3 [6] = assay: Antiproliferative activity against human PC3 cells incubated for 48 hrs and measured after 4 hrs by MTT assay; assay type: functional, cell-based
A549 [7] = assay: Induction of ROS generation in human A549 cells assessed as intracellular ROS level at 10 to 15 uM after 30 mins in presence of NAC by DCFH-DA staining-based flow cytometric analysis; assay type: functional, cell-based
A549 [8] = assay: Induction of apoptosis in human A549 cells assessed as decrease in caspase-3 protein expression level at 5 to 20 uM incubated for 12 hrs by Western blot analysis; assay type: functional, cell-based
A549 [9] = assay: Induction of apoptosis in human A549 cells assessed as decrease in caspase-9 protein expression level at 5 to 20 uM incubated for 12 hrs by Western blot analysis; assay type: functional, cell-based
A549 [10] = assay: Induction of apoptosis in human A549 cells measured after 12 hrs by Annexin V-FITC/propidium iodide staining-based flow cytometric analysis; assay type: functional, cell-based
A549 [11] = assay: Induction of apoptosis in human A549 cells assessed as early apoptotic cells at 15 uM after 12 hrs by Annexin V-FITC/propidium iodide staining-based flow cytometric analysis (reference value: 0.9%); assay type: functional
A549 [12] = assay: Cell cycle arrest in human A549 cells assessed as increase in accumulation of cells at sub G0/G1 phase after 24 hrs by propidium iodide staining-based flow cytometric analysis; assay type: functional
A549 [13] = assay: Induction of apoptosis in human A549 cells assessed as early apoptotic cells at 10 uM after 12 hrs by Annexin V-FITC/propidium iodide staining-based flow cytometric analysis (reference value: 0.9%); assay type: functional
A549 [14] = assay: Induction of ROS generation in human A549 cells assessed as intracellular ROS level at 10 to 15 uM after 30 mins by DCFH-DA staining-based flow cytometric analysis; assay type: functional, cell-based
A549 [15] = assay: Induction of apoptosis in human A549 cells assessed as increase in cleaved PARP protein expression level at 5 to 20 uM incubated for 12 hrs by Western blot analysis; assay type: functional, cell-based
A549 [16] = assay: Induction of apoptosis in human A549 cells assessed as cell shrinkage at 10 to 20 uM by microscopic analysis; assay type: functional, cell-based
A549 [17] = assay: Cell cycle arrest in human A549 cells assessed as increase in expression of p21 at 5 to 20 uM measured after 12 hrs by Western blot analysis; assay type: functional, cell-based
A549 [18] = assay: Induction of apoptosis in human A549 cells at 10 to 15 uM in presence of NAC after 12 hrs by flow cytometric analysis; assay type: functional, cell-based
A549 [19] = assay: Induction of apoptosis in human A549 cells assessed as nuclear shrinkage at 10 to 20 uM measured after 12 hrs by DAPI staining based fluorescence microscopic analysis; assay type: functional, cell-based
A549 [20] = assay: Cell cycle arrest in human A549 cells assessed as decrease in accumulation of cells at G0/G1 phase at 5 to 10 uM after 24 hrs by propidium iodide staining-based flow cytometric analysis; assay type: functional
SGC-7901 [21] = assay: Potency index, ratio of IC50 for AD-2 to IC50 for test compound for antiproliferative activity against human SGC7901 incubated for 48 hrs and measured after 4 hrs by MTT assay; assay type: functional
A549 [22] = assay: Induction of apoptosis in human A549 cells assessed as increase in cleaved caspase-3 protein expression level at 5 to 20 uM incubated for 12 hrs by Western blot analysis; assay type: functional, cell-based
A549 [23] = assay: Suppression of mitochondrial membrane potential in human A549 cells assessed as increase in green fluorescence at 10 uM after 12 hrs by JC-1 staining based flow cytometry (reference value: 0.4%); assay type: functional
SGC-7901 [24] = assay: Antiproliferative activity against human SGC7901 cells incubated for 48 hrs and measured after 4 hrs by MTT assay; assay type: functional, cell-based
A549 [25] = assay: Cell cycle arrest in human A549 cells assessed as decrease in accumulation of cells at G2/M phase at 5 to 10 uM after 24 hrs by propidium iodide staining-based flow cytometric analysis; assay type: functional
A549 [26] = assay: Potency index, ratio of IC50 for AD-2 to IC50 for test compound for antiproliferative activity against human A549 incubated for 48 hrs and measured after 4 hrs by MTT assay; assay type: functional
A549 [27] = assay: Induction of apoptosis in human A549 cells assessed as increase in cleaved caspase-9 protein expression level at 5 to 20 uM incubated for 12 hrs by Western blot analysis; assay type: functional, cell-based
A549 [28] = assay: Cell cycle arrest in human A549 cells assessed as increase in accumulation of cells at S phase at 5 to 10 uM after 24 hrs by propidium iodide staining-based flow cytometric analysis; assay type: functional
MCF7 [29] = assay: Antiproliferative activity against human MCF7 cells incubated for 48 hrs and measured after 4 hrs by MTT assay; assay type: functional, cell-based
A549 [30] = assay: Antiproliferative activity against human A549 cells incubated for 48 hrs and measured after 4 hrs by MTT assay; assay type: functional, cell-based
A549 [31] = assay: Cell cycle arrest in human A549 cells assessed as increase in expression of p53 at 5 to 20 uM measured after 12 hrs by Western blot analysis; assay type: functional, cell-based
A549 [32] = assay: Induction of apoptosis in human A549 cells assessed as upregulation of Cyt c protein expression at 5 to 20 uM incubated for 12 hrs by Western blot analysis; assay type: functional, cell-based
PC-3 [33] = assay: Potency index, ratio of IC50 for AD-2 to IC50 for test compound for antiproliferative activity against human PC3 incubated for 48 hrs and measured after 4 hrs by MTT assay; assay type: functional
MCF7 [34] = assay: Potency index, ratio of IC50 for AD-2 to IC50 for test compound for antiproliferative activity against human MCF7 incubated for 48 hrs and measured after 4 hrs by MTT assay; assay type: functional
A549 [35] = assay: Induction of apoptosis in human A549 cells assessed as appearance of apoptotic bodies at 10 to 20 uM by microscopic analysis; assay type: functional, cell-based
[36] = Cytotoxicity against human IOSE-144 cells incubated for 48 hrs and measured after 4 hrs by MTT assay; assay type: cell-based
MGC-803 [37] = assay: Potency index, ratio of IC50 for AD-2 to IC50 for test compound for antiproliferative activity against human MGC803 incubated for 48 hrs and measured after 4 hrs by MTT assay; assay type: functional
A549 [38] = assay: Induction of apoptosis in human A549 cells assessed as decrease in PARP protein expression level at 5 to 20 uM incubated for 12 hrs by Western blot analysis; assay type: functional, cell-based
A549 [39] = assay: Suppression of mitochondrial membrane potential in human A549 cells assessed as increase in green fluorescence at 15 uM after 12 hrs by JC-1 staining based flow cytometry (reference value: 0.4%); assay type: functional
A549 [40] = assay: Induction of apoptosis in human A549 cells assessed as appearance of fragmented apoptotic bodies at 10 to 20 uM measured after 12 hrs by DAPI staining based fluorescence microscopic analysis; assay type: functional, cell-based

pIC50 (MGC-803 [5]): 5.19
pIC50 (PC-3 [6]): 5.26
pIC50 (SGC-7901 [24]): 5.15
pIC50 (MCF7 [29]): 5.90
pIC50 (A549 [30]): 5.97
SMILES: CC(C)(O)CCC[C@@](C)(O)[C@H]1CC[C@]2(C)[C@@H]1[C@H](O)C[C@@H]1[C@@]3(C)CC[C@H](OC(=O)C4CCNCC4)C(C)(C)[C@@H]3CC[C@]12C
Activity (A549 [1]): Active
Activity (A549 [2]): Active
Activity (A549 [3]): Active
Activity (A549 [4]): Active
Activity (A549 [7]): inactive
Activity (A549 [8]): Active
Activity (A549 [9]): Active
Activity (A549 [10]): Dose-dependent effect
Activity (A549 [11]): 50%
Activity (A549 [12]): Active
Activity (A549 [13]): 27%
Activity (A549 [14]): Active
Activity (A549 [15]): Active
Activity (A549 [16]): Active
Activity (A549 [17]): Active
Activity (A549 [18]): inactive
Activity (A549 [19]): Active
Activity (A549 [20]): Active
Ratio IC50 (SGC-7901 [21]): 5 - 28
Activity (A549 [22]): Active
Activity (A549 [23]): 7.5%
Activity (A549 [25]): Active
Ratio IC50 (A549 [26]): 5 - 28
Activity (A549 [27]): Active
Activity (A549 [28]): Active
Activity (A549 [31]): Active
Activity (A549 [32]): Active
Ratio IC50 (PC-3 [33]): 5 - 28
Ratio IC50 (MCF7 [34]): 5 - 28
Activity (A549 [35]): Active
pIC50 [36]: < 4.00
Ratio IC50 (MGC-803 [37]): 5 - 28
Activity (A549 [38]): Active
Activity (A549 [39]): 27.6%
Activity (A549 [40]): Active
